Laboratory results published in patent US20250230193A1, “CYCLIC COMPOUND HAVING SELECTIVE KRAS INHIBITORY EFFECT ON HRAS AND NRAS” (CHUGAI SEIYAKU KABUSHIKI KAISHA, priority 2022, published 2025).
Like-named read-outs stand apart in the source and are kept apart here.

Key:
[1] = target: GDP-bound NRAS wild-type protein (Homo sapiens, UniProt P01111); experiment: Binding to NRAS by surface plasmon resonance (SPR), Single Cycle Kinetics; conditions: SPR; for NRAS/KRAS (ratio of KD value for NRAS to KD value for KRAS): GDP-bound NRAS wild-type vs GDP-bound KRAS wild-type; for NRAS/KRAS (ratio of KD value for GDP-bound NRAS wild-type protein to KD value for KRAS): KD ratio class
[2] = target: GDP-bound HRAS wild-type protein (Homo sapiens, UniProt P01112); experiment: Binding to HRAS by surface plasmon resonance (SPR), Single Cycle Kinetics; conditions: SPR; for HRAS/KRAS (ratio of KD value for HRAS to KD value for KRAS): GDP-bound HRAS wild-type vs GDP-bound KRAS wild-type; for HRAS/KRAS (ratio of KD value for GDP-bound HRAS wild-type protein to KD value for KRAS): KD ratio class
[3] = system: human lung cancer strain NCI-H441
[4] = system: human lung cancer strain NCI-H441; experiment: cells; conditions: NCI-H441, 96 h, read-out: NCI-H441 IC50 (nM)
[5] = read-out: NCI-H441 IC50, NCI-H441 cells, 4 days, CellTiter-Glo

Sequence of GDP-bound NRAS wild-type protein (P01111 whole entry): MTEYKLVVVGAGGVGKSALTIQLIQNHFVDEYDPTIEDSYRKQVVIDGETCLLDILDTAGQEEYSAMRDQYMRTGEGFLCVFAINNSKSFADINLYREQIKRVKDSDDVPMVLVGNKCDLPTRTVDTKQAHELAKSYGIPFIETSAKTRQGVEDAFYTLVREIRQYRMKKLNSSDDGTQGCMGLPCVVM
Sequence of GDP-bound HRAS wild-type protein (P01112 whole entry): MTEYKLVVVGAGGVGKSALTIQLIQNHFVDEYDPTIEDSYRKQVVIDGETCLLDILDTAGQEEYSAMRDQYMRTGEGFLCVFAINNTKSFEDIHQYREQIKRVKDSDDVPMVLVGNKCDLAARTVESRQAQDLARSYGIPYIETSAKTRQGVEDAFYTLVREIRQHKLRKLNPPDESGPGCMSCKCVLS

| IC50 [3] [nM] | IC50 [4] [nM] | SMILES | NRAS/KRAS (ratio of KD value for GDP-bound NRAS wild-type protein to KD value for KRAS) [1] | HRAS/KRAS (ratio of KD value for GDP-bound HRAS wild-type protein to KD value for KRAS) [2] | also measured |
| --- | --- | --- | --- | --- | --- |
| 10.7 |  | CC[C@H](C)[C@@H]1NC(=O)[C@H](CC)N(C)C(=O)C[C@@H](C(=O)N(C)CC)N(C)C(=O)[C@H](C2CCCC2)N(C)C(=O)C2(CC(C)(C)C2)NC(=O)[C@@H]2C[C@H](C)CN2C(=O)[C@H](CCc2ccc(C(F)(F)F)c(OC)c2)NC(=O)CN(C)C(=O)[C@H](Cc2ccc(C)cc2)N2CC/C=C\C[C@@H](C2=O)N(C)C(=O)CN(C)C1=O [PP1868] |  |  | NRAS/KRAS (ratio of KD value for NRAS to KD value for KRAS) [1]: A (a compound having 10 or more and less than 20 is denoted as A); HRAS/KRAS (ratio of KD value for HRAS to KD value for KRAS) [2]: B (a compound having 3 or more and less than 10 is denoted as B) |
| 8.8 |  | CCO[C@@H]1C[C@H]2C(=O)NC3(CC(C)(C)C3)C(=O)N(C)[C@@H](C3CCCC3)C(=O)N(C)[C@H](C(=O)N(C)C)CC(=O)N(C)[C@@H](CC)C(=O)N[C@@H]([C@@H](C)CC)C(=O)N(C)CC(=O)N(C)[C@H]3C/C=C\CCN(C3=O)[C@@H](Cc3ccc(C)cc3)C(=O)N(C)CC(=O)N[C@@H](CCc3ccc(C(F)(F)F)c(Cl)c3)C(=O)N2C1 [PP1878] |  |  | NRAS/KRAS (ratio of KD value for NRAS to KD value for KRAS) [1]: A (a compound having 10 or more and less than 20 is denoted as A); HRAS/KRAS (ratio of KD value for HRAS to KD value for KRAS) [2]: A (a compound having 10 or more and less than 20 is denoted as A) |
| 3.4 |  | C#CC[C@H]1C(=O)N[C@@H]([C@@H](C)CC)C(=O)N(C)CC(=O)N(C)[C@H]2C/C=C\CCN(C2=O)[C@@H](Cc2ccc(C(F)(F)F)cc2)C(=O)N(C)CC(=O)N[C@@H](CCc2ccc(C(F)(F)F)c(OC)c2)C(=O)N2C[C@H](OCC)C[C@H]2C(=O)NC2(CC(C)(C)C2)C(=O)N(C)[C@@H](C2CCCC2)C(=O)N(C)[C@H](C(=O)N(C)C)CC(=O)N1C [PP1677] |  |  | NRAS/KRAS (ratio of KD value for NRAS to KD value for KRAS) [1]: A (a compound having 10 or more and less than 20 is denoted as A); HRAS/KRAS (ratio of KD value for HRAS to KD value for KRAS) [2]: A (a compound having 10 or more and less than 20 is denoted as A) |
|  | 38.6 | CCO[C@@H]1C[C@H]2C(=O)NC3(CCCC3)C(=O)N(C)[C@@H](C3CCCC3)C(=O)N(C)[C@H](C(=O)N(C)C)CC(=O)N(C)[C@@H](CC(C)C)C(=O)N[C@@H]([C@@H](C)CC)C(=O)N(C)CC(=O)N(C)[C@H]3C/C=C\CCN(C3=O)[C@@H](CC3CCC(F)(F)CC3)C(=O)N(C)CC(=O)N[C@@H](CCc3cc(F)c(C(F)(F)F)c(F)c3)C(=O)N2C1 [PP1459] | A (a compound having 10 or more and less than 20 is denoted as A) | A (a compound having 10 or more and less than 20 is denoted as A) |  |
|  | 103 | CCO[C@@H]1C[C@H]2C(=O)NC3(CCC3)C(=O)N(C)[C@@H](C3CCCC3)C(=O)N(C)[C@H](C(=O)N3CCC3)CC(=O)N(C)[C@@H](CC)C(=O)N[C@@H]([C@@H](C)CC)C(=O)N(C)CC(=O)N(C)[C@H]3C/C=C\CCN(C3=O)[C@@H](CC3CCC(F)(F)CC3)C(=O)N(C)CC(=O)N[C@@H](CCc3cc(F)c(C(F)(F)F)c(F)c3)C(=O)N2C1 [PP1444] | A (a compound having 10 or more and less than 20 is denoted as A) | A (a compound having 10 or more and less than 20 is denoted as A) |  |

More lines, now with the values behind:

| SMILES | IC50 [3] [nM] | IC50 [4] [nM] | NRAS/KRAS (ratio of KD value for GDP-bound NRAS wild-type protein to KD value for KRAS) [1] | HRAS/KRAS (ratio of KD value for GDP-bound HRAS wild-type protein to KD value for KRAS) [2] | also measured |
| --- | --- | --- | --- | --- | --- |
| CC[C@H](C)[C@@H]1NC(=O)[C@H](CC(C)C)N(C)C(=O)C[C@@H](C(=O)N(C)C)N(C)C(=O)[C@H](C2CCCC2)N(C)C(=O)C2(CCCC2)NC(=O)[C@@H]2CCCN2C(=O)[C@H](CCc2ccc(C(F)(F)F)c(Cl)c2)NC(=O)CN(C)C(=O)[C@H](Cc2ccc(C)cc2)N2C/C=C\COC[C@@H](C2=O)N(C)C(=O)CN(C)C1=O [PP0627] | 98.3 |  |  |  |  |
| CCO[C@@H]1C[C@H]2C(=O)NC3(CC(C)(C)C3)C(=O)N(C)[C@@H](C3CCCC3)C(=O)N(C)[C@H](C(=O)N3CCCCC3)CC(=O)N(C)[C@H]3CCCCc4ccc(cc4)C[C@@H](C(=O)N(C)CC(=O)N[C@@H](CCc4ccc(C(F)(F)F)c(OC)c4)C(=O)N2C1)N1CC/C=C\C[C@@H](C1=O)N(C)C(=O)CN(C)C(=O)[C@H]([C@@H](C)CC)NC3=O [PP3093, (1S,7S,11R,13S,19S,22S,26S,29S,35S,37Z)-19-cyclopentyl-11-ethoxy-7-[2-[3-methoxy-4-(trifluoromethyl)phenyl]ethyl]-3,3′,3′,18,21,25,31,34-octamethyl-29-[(1S)-1-methylpropyl]-22-(piperidine-1-carbonyl)spiro[3,6,9,15,18,21,25,28,31,34,41-undecazapentacyclo[24.15.9.2^43,46.1^35,41.0^9,13]tripentaconta-37,43(52),44,46(51)-tetraene-16,1′-cyclobutane]-2,5,8,14,17,20,24,27,30,33,53-undecone] |  |  |  |  | NRAS/KRAS (ratio of KD value with respect to GDP-bound NRAS wild-type protein to KD value with respect to KRAS) ([1]; KD ratio NRAS/KRAS, GDP-bound wild-type proteins): A (a compound having 10 or more and less than 20 is denoted as A); HRAS/KRAS (ratio of KD value with respect to GDP-bound HRAS wild-type protein to KD value with respect to KRAS) ([2]; KD ratio HRAS/KRAS, GDP-bound wild-type proteins): A (a compound having 10 or more and less than 20 is denoted as A); IC50 [3, 5]: 3.2 nM |
| CCO[C@@H]1C[C@H]2C(=O)NC3(CCC3)C(=O)N(C)[C@@H](C3CCCC3)C(=O)N(C)[C@@H](C(C)C)CC(=O)N(C)[C@@H](CC3CC3)C(=O)N[C@@H]([C@@H](C)CC)C(=O)N(C)CC(=O)N(C)[C@H]3C/C=C\CCN(C3=O)[C@@H](Cc3ccc(C(F)(F)F)cc3)C(=O)N(C)CC(=O)N[C@@H](CCc3cc(F)c(C(F)(F)F)c(F)c3)C(=O)N2C1 [PP1596] |  |  |  |  | IC50 [3, 5]: 18.1 nM |
| CC[C@H](C)[C@@H]1NC(=O)[C@H](CC2CC2)N(C)C(=O)C[C@@H](C(=O)N2CCOCC2)N(C)C(=O)[C@H](C2CCCC2)N(C)C(=O)C2(CCC2)NC(=O)[C@@H]2CCCN2C(=O)[C@H](CCc2ccc(C(F)(F)F)c(Cl)c2)NC(=O)CN(C)C(=O)[C@H](Cc2ccc(C(F)(F)F)cc2)N2C[C@H](C)CC[C@@H](C2=O)N(C)C(=O)[C@@H]2CCN2C1=O [PP1341] |  | 46.3 | A (a compound having 10 or more and less than 20 is denoted as A) | B (a compound having 3 or more and less than 10 is denoted as B) |  |
| CCO[C@@H]1C[C@H]2C(=O)NC3(CCC3)C(=O)N(C)[C@@H](C3CCCC3)C(=O)N(C)[C@H](C(=O)N3CCCCC3)CC(=O)N(C)[C@@H](CC3CC3)C(=O)N[C@@H]([C@@H](C)CC)C(=O)N(C)CC(=O)N(C)[C@H]3C/C=C\CCN(C3=O)[C@@H](Cc3ccc(C(F)(F)F)cc3)C(=O)N(C)CC(=O)N[C@@H](CCc3cc(F)c(C(F)(F)F)c(F)c3)C(=O)N2C1 [PP1291] |  | 16.7 | A (a compound having 10 or more and less than 20 is denoted as A) | A (a compound having 10 or more and less than 20 is denoted as A) |  |
| CCO[C@@H]1C[C@H]2C(=O)NC3(CCC3)C(=O)N(C)[C@@H](C3CCCC3)C(=O)N(C)[C@H](C(=O)N3CCOCC3)CC(=O)N(C)[C@@H](CC(C)C)C(=O)N[C@@H]([C@@H](C)CC)C(=O)N3CC[C@H]3C(=O)N(C)[C@H]3CC[C@@H](C)CN(C3=O)[C@@H](Cc3ccc(C(F)(F)F)cc3)C(=O)N(C)CC(=O)N[C@@H](CCc3ccc(C(F)(F)F)c(Cl)c3)C(=O)N2C1 [PP1379] |  | 10.3 | A (a compound having 10 or more and less than 20 is denoted as A) | B (a compound having 3 or more and less than 10 is denoted as B) |  |
